Test results taken from ChEMBL document CHEMBL2346651, “Structure-activity relationship study of tachykinin peptides for the development of novel neurokinin-3 receptor selective agonists” (Bioorg Med Chem, 2013).
Residues, ends and D or L forms follow the SMILES beside them.

Assays:
[1] = target: T1, Substance-K receptor (Homo sapiens) (UniProt P21452); test: Displacement of [125I]-NKA from NK2R (unknown origin) transfected in CHO cells at 10 uM by gamma counting analysis; format: cell-based
T1 sequence (whole entry): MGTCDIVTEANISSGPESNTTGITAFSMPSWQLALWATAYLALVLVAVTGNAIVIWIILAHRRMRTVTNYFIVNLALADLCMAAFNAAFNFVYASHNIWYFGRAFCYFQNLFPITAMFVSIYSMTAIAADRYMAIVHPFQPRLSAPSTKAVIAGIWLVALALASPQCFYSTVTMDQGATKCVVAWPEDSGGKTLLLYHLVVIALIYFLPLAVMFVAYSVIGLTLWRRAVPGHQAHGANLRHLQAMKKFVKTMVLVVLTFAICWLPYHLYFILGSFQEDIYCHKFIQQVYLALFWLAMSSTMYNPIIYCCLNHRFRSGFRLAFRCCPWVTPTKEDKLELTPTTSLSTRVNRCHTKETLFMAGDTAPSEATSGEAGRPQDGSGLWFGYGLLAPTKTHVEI

[2] = target: Substance-P receptor (Homo sapiens) (UniProt P25103); test: Displacement of [125I]-BH-SP from NK1R (unknown origin) transfected in CHO cells at 10 uM by gamma counting analysis; format: cell-based
Substance-P receptor (Homo sapiens), sequence (P25103 whole entry): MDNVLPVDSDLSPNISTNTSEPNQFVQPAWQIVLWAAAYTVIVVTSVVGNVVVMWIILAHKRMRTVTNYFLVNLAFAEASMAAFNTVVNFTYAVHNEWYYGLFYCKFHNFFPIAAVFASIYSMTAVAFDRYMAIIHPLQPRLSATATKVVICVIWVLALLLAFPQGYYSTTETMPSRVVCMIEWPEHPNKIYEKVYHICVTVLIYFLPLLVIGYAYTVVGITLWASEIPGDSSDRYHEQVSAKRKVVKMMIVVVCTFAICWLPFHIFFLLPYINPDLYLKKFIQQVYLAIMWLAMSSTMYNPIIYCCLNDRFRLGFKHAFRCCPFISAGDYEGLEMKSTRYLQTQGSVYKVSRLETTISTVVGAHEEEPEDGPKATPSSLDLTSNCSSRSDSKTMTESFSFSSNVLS

[3] = target: T2, Neuromedin-K receptor (Homo sapiens, UniProt P29371); test: Agonist activity at NK3R (unknown origin) transfected in CHO cells assessed as calcium influx […]; format: functional, cell-based
T2 sequence (P29371 whole entry): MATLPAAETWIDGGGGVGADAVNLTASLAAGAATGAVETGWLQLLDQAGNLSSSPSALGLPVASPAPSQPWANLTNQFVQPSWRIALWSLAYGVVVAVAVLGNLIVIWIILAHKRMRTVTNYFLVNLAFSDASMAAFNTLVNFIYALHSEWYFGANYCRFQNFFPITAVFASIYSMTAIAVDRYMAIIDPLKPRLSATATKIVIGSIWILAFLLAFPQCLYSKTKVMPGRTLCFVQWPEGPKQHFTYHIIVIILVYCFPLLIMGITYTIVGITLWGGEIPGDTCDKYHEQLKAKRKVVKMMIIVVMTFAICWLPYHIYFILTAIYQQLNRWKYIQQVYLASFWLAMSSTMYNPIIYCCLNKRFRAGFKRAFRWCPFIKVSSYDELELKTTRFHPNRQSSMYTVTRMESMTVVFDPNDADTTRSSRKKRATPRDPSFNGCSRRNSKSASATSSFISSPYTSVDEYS

[4] = target: T2, Neuromedin-K receptor; test: Displacement of ([125I]-His3, MePhe7)-NKB from NK3R (unknown origin) transfected in CHO cells by gamma counting analysis; format: cell-based

inhibition [1]	inhibition [2]	EC50 [3]	IC50 [4]	SMILES
31%	< 10%	0.04 nM	3.6 nM	CSCC[C@H](NC(=O)[C@H](CC(C)C)NC(=O)CNC(=O)[C@H](Cc1ccccc1)N(C)C(=O)[C@H](Cc1ccccc1)NC(=O)[C@H](CO)NC(=O)[C@H](CC(=O)O)NC(=O)[C@H](Cc1cnc[nH]1)NC(=O)[C@H](CCSC)NC(=O)[C@@H](N)CC(=O)O)C(N)=O (HELM PEPTIDE1{D.M.H.D.S.F.[meF].G.L.M.[am]}$$$$V2.0)
< 10%	< 10%	0.085 nM	27 nM	CSCC[C@H](NC(=O)[C@H](CC(C)C)NC(=O)CNC(=O)[C@H](Cc1ccccc1)N(C)C(=O)[C@H](Cc1ccccc1)NC(=O)[C@H](CC(=O)O)NC(=O)[C@H](CC(=O)O)NC(=O)[C@H](CO)NC(=O)[C@H](CCCCN)NC(=O)[C@@H]1CCCN1C(=O)[C@@H](NC(=O)[C@@H](N)CC(=O)O)C(C)C)C(N)=O (HELM PEPTIDE1{D.V.P.K.S.D.D.F.[meF].G.L.M.[am]}$$$$V2.0)
